Reference: ChEMBL document CHEMBL2429833, “A new class of bactericidal agents against S. aureus, MRSA and VRE derived from bisindolylmethane” (Med Chem Res, 2013)
Values after ≈ are worked out from the molar mass of the structure shown. Active and inactive are the calls of the source. The rule behind the calls is not given here.

What was measured:
Pseudomonas aeruginosa = assay: Antibacterial activity against Pseudomonas aeruginosa ATCC 27853 after 24 hrs by microdilution method; type: functional, organism-based
Escherichia coli = assay: Antibacterial activity against Escherichia coli ATCC 25922 after 24 hrs by microdilution method; type: functional, organism-based
Enterococcus faecalis [1] = assay: Bactericidal activity against vancomycin-resistant Enterococcus faecalis after 24 hrs; type: functional
Staphylococcus aureus [2] = assay: Bactericidal activity against methicillin-resistant Staphylococcus aureus after 24 hrs; type: functional
Staphylococcus aureus [3] = assay: Bactericidal activity against Staphylococcus aureus ATCC 29213 after 24 hrs; type: functional; details: ATCC 29213, 24 h
Enterococcus faecalis [4] = assay: Antibacterial activity against vancomycin-resistant Enterococcus faecalis after 24 hrs by microdilution method; type: functional
Staphylococcus aureus [5] = assay: Antibacterial activity against methicillin-resistant Staphylococcus aureus after 24 hrs by microdilution method; type: functional
Staphylococcus aureus [6] = assay: Antibacterial activity against Staphylococcus aureus ATCC 29213 after 24 hrs by microdilution method; type: functional; details: ATCC 29213, 24 h
A549 = assay: Cytotoxicity against human A549 cells after 48 hrs by MTT assay; type: functional, cell-based
HeLa = assay: Cytotoxicity against human HeLa cells after 48 hrs by MTT assay; type: functional, cell-based
PC-3 = assay: Cytotoxicity against human PC3 cells after 48 hrs by MTT assay; type: functional, cell-based

Row | SMILES | Activity (Pseudomonas aeruginosa) | Activity (Escherichia coli) | MBC (Enterococcus faecalis [1]) | MBC (Staphylococcus aureus [2]) | MBC (Staphylococcus aureus [3]) | MIC (Enterococcus faecalis [4]) | MIC (Staphylococcus aureus [5]) | MIC (Staphylococcus aureus [6]) | IC50 (A549) | IC50 (HeLa) | IC50 (PC-3)
1 | Fc1ccc(C(c2c[nH]c3ccc(Br)cc23)c2c[nH]c3ccc(Br)cc23)cc1 | inactive | inactive | 16 µg/mL (≈ 32.1 µM) | 1 µg/mL (≈ 2.01 µM) | 1 µg/mL (≈ 2.01 µM) | 8 µg/mL (≈ 16.1 µM) | 1 µg/mL (≈ 2.01 µM) | 1 µg/mL (≈ 2.01 µM) | 4.5 µM | 2.7 µM | 3.9 µM
2 | Cn1cc(C(c2ccc(F)cc2)c2cn(C)c3ccc(Br)cc23)c2cc(Br)ccc21 | – | – | 8 µg/mL (≈ 15.2 µM) | 8 µg/mL (≈ 15.2 µM) | 4 µg/mL (≈ 7.6 µM) | 8 µg/mL (≈ 15.2 µM) | 8 µg/mL (≈ 15.2 µM) | 4 µg/mL (≈ 7.6 µM) | 29.4 µM | 25.4 µM | 38.9 µM
3 | O=S(=O)(c1ccc(F)cc1)n1cc(C(c2ccc(F)cc2)c2cn(S(=O)(=O)c3ccc(F)cc3)c3ccc(Br)cc23)c2cc(Br)ccc21 | – | – | – | – | – | > 128 µg/mL | > 128 µg/mL | > 128 µg/mL | > 100 µM | > 100 µM | > 100 µM
